Laboratory results: PubChem BioAssay (NCI)
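A five-concentration, 48-hour dose response in 96-well plates underlies each endpoint, interpolated linearly between surrounding concentrations. TGI: total growth inhibition.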

Legend:
Experiment in all cases: inhibition of tumour cell growth, NCI panel, 48 h
K-562 leukemia = system: K-562 leukemia
A549 NSCLC = system: A549 NSCLC
UACC-257 melanoma = system: UACC-257 melanoma
M14 melanoma = system: M14 melanoma
SK-MEL-28 melanoma = system: SK-MEL-28 melanoma
CCRF-CEM leukemia = system: CCRF-CEM leukemia
OVCAR-8 ovarian = system: OVCAR-8 ovarian
SF-268 CNS = system: SF-268 CNS
NCI-H23 lung = system: NCI-H23 lung
DMS 114 small cell lung = system: DMS 114 small cell lung
SN12C renal = system: SN12C renal
IGROV1 ovarian = system: IGROV1 ovarian
XF 498 CNS = system: XF 498 CNS
M19-MEL melanoma = system: M19-MEL melanoma
DLD-1 colon = system: DLD-1 colon
HT29 colon = system: HT29 colon
A498 renal = system: A498 renal
OVCAR-5 ovarian = system: OVCAR-5 ovarian
NCI-H522 lung = system: NCI-H522 lung
SK-MEL-5 melanoma = system: SK-MEL-5 melanoma
KM12 colon = system: KM12 colon
SF-295 CNS = system: SF-295 CNS
SR leukemia = system: SR leukemia
UO-31 renal = system: UO-31 renal
HCT-15 colon = system: HCT-15 colon
HOP-62 NSCLC = system: HOP-62 NSCLC
LXFL 529 NSCLC = system: LXFL 529 NSCLC
KM20L2 colon = system: KM20L2 colon
SW-620 colon = system: SW-620 colon
CAKI-1 renal = system: CAKI-1 renal
NCI-H226 lung = system: NCI-H226 lung
SK-MEL-2 melanoma = system: SK-MEL-2 melanoma
DMS 273 small cell lung = system: DMS 273 small cell lung
HL-60(TB) leukemia = system: HL-60(TB) leukemia
SK-OV-3 ovarian = system: SK-OV-3 ovarian
MOLT-4 leukemia = system: MOLT-4 leukemia
TK-10 renal = system: TK-10 renal
SNB-19 CNS = system: SNB-19 CNS
HOP-18 NSCLC = system: HOP-18 NSCLC
RPMI-8226 leukemia = system: RPMI-8226 leukemia
OVCAR-3 ovarian = system: OVCAR-3 ovarian
OVCAR-4 ovarian = system: OVCAR-4 ovarian
NCI-H460 lung = system: NCI-H460 lung
MALME-3M melanoma = system: MALME-3M melanoma
SF-539 CNS = system: SF-539 CNS
SNB-75 CNS = system: SNB-75 CNS
U251 CNS = system: U251 CNS
HCC-2998 colon = system: HCC-2998 colon
HOP-92 NSCLC = system: HOP-92 NSCLC
HCT-116 colon = system: HCT-116 colon
EKVX NSCLC = system: EKVX NSCLC
786-0 renal = system: 786-0 renal
ACHN renal = system: ACHN renal
UACC-62 melanoma = system: UACC-62 melanoma
COLO 205 colon = system: COLO 205 colon

Measured: TGI

O=C1OC(CC(=O)c2ccc(Cl)cc2)C(Cl)=C1Cl (stereo not given)
76.9 µM: HL-60(TB) leukemia
> 100 µM: K-562 leukemia | A549 NSCLC | UACC-257 melanoma | M14 melanoma | SK-MEL-28 melanoma | CCRF-CEM leukemia | OVCAR-8 ovarian | SF-268 CNS | NCI-H23 lung | DMS 114 small cell lung | SN12C renal | IGROV1 ovarian | XF 498 CNS | M19-MEL melanoma | DLD-1 colon | HT29 colon | A498 renal | OVCAR-5 ovarian | NCI-H522 lung | SK-MEL-5 melanoma | KM12 colon | SF-295 CNS | SR leukemia | UO-31 renal | HCT-15 colon | HOP-62 NSCLC | LXFL 529 NSCLC | KM20L2 colon | SW-620 colon | CAKI-1 renal | NCI-H226 lung | SK-MEL-2 melanoma | DMS 273 small cell lung | SK-OV-3 ovarian | MOLT-4 leukemia | TK-10 renal | SNB-19 CNS | HOP-18 NSCLC | RPMI-8226 leukemia | OVCAR-3 ovarian | OVCAR-4 ovarian | NCI-H460 lung | MALME-3M melanoma | SF-539 CNS | SNB-75 CNS | U251 CNS | HCC-2998 colon | HOP-92 NSCLC | HCT-116 colon | EKVX NSCLC | 786-0 renal | ACHN renal | UACC-62 melanoma | COLO 205 colon
